This experiment has as its system bromodomain. Briefly: at least one of the bromodomain cell assays of Example 57. It is filed as cell-based. The note with it: at least one of the bromodomain cell assays described in Example 57; read-out: IC50 in at least one of the bromodomain cell assays.

With `COC(=O)c1ccc(-c2cn([C@@H](c3ccccc3)c3ccccn3)c3cc(-c4c(C)noc4C)cnc23)cc1` [P-0715, methyl 4-[6-(3,5-dimethylisoxazol-4-yl)-1-[(S)-phenyl(2-pyridyl)methyl]pyrrolo[3,2-b]pyridin-3-yl]benzoate], the half-maximal inhibitory concentration (IC50) is < 10 µM. For `CCOC(=O)c1ccc(-c2cn([C@@H](c3ccccc3)c3ccccn3)c3cc(-c4c(C)noc4C)cnc23)cc1` [P-0716, ethyl 4-[6-(3,5-dimethylisoxazol-4-yl)-1-[(S)-phenyl(2-pyridyl)methyl]pyrrolo[3,2-b]pyridin-3-yl]benzoate], the IC50 was < 10 µM. Consider `Cc1noc(C)c1-c1cnc2c(-c3ccc(C(=O)OC(C)C)cc3)cn([C@@H](c3ccccc3)c3ccccn3)c2c1` [P-0717, isopropyl 4-[6-(3,5-dimethylisoxazol-4-yl)-1-[(S)-phenyl(2-pyridyl)methyl]pyrrolo[3,2-b]pyridin-3-yl]benzoate], for which the half-inhibitory concentration (IC50) was < 10 µM.

Regarding `Cc1noc(C)c1-c1cnc2c(-c3ccc(B(O)O)cc3)cn([C@@H](c3ccccc3)c3ccccn3)c2c1` [P-0718, [4-[6-(3,5-dimethylisoxazol-4-yl)-1-[(S)-phenyl(2-pyridyl)methyl]pyrrolo[3,2-b]pyridin-3-yl]phenyl]boronic acid], the IC50 is < 10 µM. `Cc1noc(C)c1-c1cnc2c(-c3ccc([N+](=O)[O-])nc3)cn([C@@H](c3ccccc3)c3ccccn3)c2c1` [P-0719, 3,5-dimethyl-4-[3-(6-nitro-3-pyridyl)-1-[(S)-phenyl(2-pyridyl)methyl]pyrrolo[3,2-b]pyridin-6-yl]isoxazole]: the IC50 is < 10 µM. Turning to `Cc1noc(C)c1-c1cnc2c(-c3ccc(C#N)nc3)cn([C@@H](c3ccccc3)c3ccccn3)c2c1` [P-0720, 5-[6-(3,5-dimethylisoxazol-4-yl)-1-[(S)-phenyl(2-pyridyl)methyl]pyrrolo[3,2-b]pyridin-3-yl]pyridine-2-carbonitrile], the IC50 is < 10 µM. In the case of `Cc1noc(C)c1-c1cnc2c(-c3cnn(C)c3)cn([C@@H](c3ccccc3)c3ccccn3)c2c1` [P-0721, 3,5-dimethyl-4-[3-(1-methylpyrazol-4-yl)-1-[(S)-phenyl(2-pyridyl)methyl]pyrrolo[3,2-b]pyridin-6-yl]isoxazole] it was < 10 µM; in that of `Cc1noc(C)c1-c1cnc2c(F)cn([C@H](c3ccccc3)c3ccccn3)c2c1` [P-0723, 4-[3-fluoro-1-[(R)-phenyl(2-pyridyl)methyl]pyrrolo[3,2-b]pyridin-6-yl]-3,5-dimethyl-isoxazole], < 10 µM. On to `Cc1noc(C)c1-c1cnc2c(-c3ccc(CO)cc3)cn([C@H](c3ccccc3)c3ccccn3)c2c1` [P-0724, [4-[6-(3,5-dimethylisoxazol-4-yl)-1-[(R)-phenyl(2-pyridyl)methyl]pyrrolo[3,2-b]pyridin-3-yl]phenyl]methanol], for which the IC50 was < 10 µM. For the compound `Cc1ccc(-c2cn([C@H](c3ccccc3)c3ccccn3)c3cc(-c4c(C)noc4C)cnc23)cc1` [P-0725, 3,5-dimethyl-4-[1-[(R)-phenyl(2-pyridyl)methyl]-3-(p-tolyl)pyrrolo[3,2-b]pyridin-6-yl]isoxazole], the IC50 was < 10 µM.

Turning to `COC(=O)c1ccc(-c2cn([C@H](c3ccccc3)c3ccccn3)c3cc(-c4c(C)noc4C)cnc23)cc1` [P-0726, methyl 4-[6-(3,5-dimethylisoxazol-4-yl)-1-[(R)-phenyl(2-pyridyl)methyl]pyrrolo[3,2-b]pyridin-3-yl]benzoate], the IC50 was < 10 µM.

For the compound `CCOC(=O)c1ccc(-c2cn([C@H](c3ccccc3)c3ccccn3)c3cc(-c4c(C)noc4C)cnc23)cc1` [P-0727, ethyl 4-[6-(3,5-dimethylisoxazol-4-yl)-1-[(R)-phenyl(2-pyridyl)methyl]pyrrolo[3,2-b]pyridin-3-yl]benzoate], the IC50 is < 10 µM. With `Cc1noc(C)c1-c1cnc2c(-c3ccc(C(=O)OC(C)C)cc3)cn([C@H](c3ccccc3)c3ccccn3)c2c1` [P-0728, isopropyl 4-[6-(3,5-dimethylisoxazol-4-yl)-1-[(R)-phenyl(2-pyridyl)methyl]pyrrolo[3,2-b]pyridin-3-yl]benzoate], the IC50 is < 10 µM. In the case of `Cc1noc(C)c1-c1cnc2c(-c3ccc(B(O)O)cc3)cn([C@H](c3ccccc3)c3ccccn3)c2c1` [P-0729, [4-[6-(3,5-dimethylisoxazol-4-yl)-1-[(R)-phenyl(2-pyridyl)methyl]pyrrolo[3,2-b]pyridin-3-yl]phenyl]boronic acid], the 50% inhibitory concentration (IC50) is < 10 µM. Next, `Cc1noc(C)c1-c1cnc2c(-c3ccc([N+](=O)[O-])nc3)cn([C@H](c3ccccc3)c3ccccn3)c2c1` [P-0730, 3,5-dimethyl-4-[3-(6-nitro-3-pyridyl)-1-[(R)-phenyl(2-pyridyl)methyl]pyrrolo[3,2-b]pyridin-6-yl]isoxazole]: < 10 µM.

For the compound `Cc1noc(C)c1-c1cnc2c(-c3ccc(C#N)nc3)cn([C@H](c3ccccc3)c3ccccn3)c2c1` [P-0731, 5-[6-(3,5-dimethylisoxazol-4-yl)-1-[(R)-phenyl(2-pyridyl)methyl]pyrrolo[3,2-b]pyridin-3-yl]pyridine-2-carbonitrile], the half-inhibitory concentration (IC50) is < 10 µM.

`Cc1noc(C)c1-c1cnc2c(-c3cnn(C)c3)cn([C@H](c3ccccc3)c3ccccn3)c2c1` [P-0732, 3,5-dimethyl-4-[3-(1-methylpyrazol-4-yl)-1-[(R)-phenyl(2-pyridyl)methyl]pyrrolo[3,2-b]pyridin-6-yl]isoxazole]: the IC50 was < 10 µM.

As to `Cc1noc(C)c1-c1cnc2[nH]cc(C(c3ccccn3)c3ccccn3)c2c1` [P-0733, 4-[3-[bis(2-pyridyl)methyl]-1H-pyrrolo[2,3-b]pyridin-5-yl]-3,5-dimethyl-isoxazole], the IC50 was < 10 µM.

On to `Cc1noc(C)c1-c1cnc2c(c1)c(C(c1ccccn1)c1ccccn1)cn2C(F)F` [P-0734, 4-[3-[bis(2-pyridyl)methyl]-1-(difluoromethyl)pyrrolo[2,3-b]pyridin-5-yl]-3,5-dimethyl-isoxazole], for which the IC50 is < 10 µM. On to `Cc1noc(C)c1-c1cnc2c(c1)c(C(c1ccccn1)c1ccccn1)cn2-c1ccc(C(=O)O)cc1` [P-0735, 4-[3-[bis(2-pyridyl)methyl]-5-(3,5-dimethylisoxazol-4-yl)pyrrolo[2,3-b]pyridin-1-yl]benzoic acid], for which the IC50 is < 10 µM.

Take `Cc1noc(C)c1-c1cnc2c(c1)c(C(c1ccccn1)c1ccccn1)cn2-c1ccc(CO)cc1` [P-0736, [4-[3-[bis(2-pyridyl)methyl]-5-(3,5-dimethylisoixazol-4-yl)pyrrolo[2,3-b]pyridin-1-yl]phenyl]methanol]: the IC50 is < 10 µM.

For the compound `Cc1noc(C)c1-c1cnc2c(c1)c(C(c1ccccn1)c1ccccn1)cn2-c1ccc(C(=O)O)cn1` [P-0737, 6-[3-[bis(2-pyridyl)methyl]-5-(3,5-dimethylisoxazol-4-yl)pyrrolo[2,3-b]pyridin-1-yl]pyridine-3-carboxylic acid], the IC50 was < 10 µM. Take `Cc1noc(C)c1-c1cnc2[nH]cc(C(c3ccccc3)c3ccccc3)c2c1` [P-0738, 4-(3-benzhydryl-1H-pyrrolo[2,3-b]pyridin-5-yl)-3,5-dimethyl-isoxazole]: the IC50 was < 10 µM.

`Cc1noc(C)c1-c1cnc2c(c1)c(C(c1ccccc1)c1ccccc1)cn2C(F)F` [P-0739, 4-[3-benzhydryl-1-(difluoromethyl)pyrrolo[2,3-b]pyridin-5-yl]-3,5-dimethyl-isoxazole]: the 50% inhibitory concentration (IC50) was < 10 µM. As to `Cc1noc(C)c1-c1cnc2c(c1)c(C(c1ccccc1)c1ccccc1)cn2-c1ccc(C(=O)O)cc1` [P-0740, 4-[3-benzhydryl-5-(3,5-dimethylisoxazol-4-yl)pyrrolo[2,3-b]pyridin-1-yl]benzoic acid], the IC50 was < 10 µM. For the compound `Cc1noc(C)c1-c1cnc2c(c1)c(C(c1ccccc1)c1ccccc1)cn2-c1ccc(CO)cc1` [P-0741, [4-[3-benzhydryl-5-(3,5-dimethylisoxazol-4-yl)pyrrolo[2,3-b]pyridin-1-yl]phenyl]methanol], the IC50 was < 10 µM. Regarding `Cc1noc(C)c1-c1cnc2c(c1)c(C(c1ccccc1)c1ccccc1)cn2-c1ccc(C(=O)O)cn1` [P-0742, 6-[3-benzhydryl-5-(3,5-dimethylisoxazol-4-yl)pyrrolo[2,3-b]pyridin-1-yl]pyridine-3-carboxylic acid], the IC50 was < 10 µM. With `Cc1noc(C)c1-c1ccc2c(-c3ccc(C(=O)O)cc3)cn(CC3CCC(F)(F)CC3)c2c1` [P-0745, 4-[1-[(4,4-difluorocyclohexyl)methyl]-6-(3,5-dimethylisoxazol-4-yl)indol-3-yl]benzoic acid], the IC50 was < 10 µM. In the case of `COc1cc(-c2cn(CC3CCC(F)(F)CC3)c3cc(-c4c(C)noc4C)ccc23)ccc1C(=O)O` [P-0746, 4-[1-[(4,4-difluorocyclohexyl)methyl]-6-(3,5-dimethylisoxazol-4-yl)indol-3-yl]-2-methoxy-benzoic acid], the IC50 was < 10 µM. Next, `Cc1noc(C)c1-c1ccc2c(-c3ccc(P(=O)(O)O)cc3)cn(CC3CCC(F)(F)CC3)c2c1` [P-0747, [4-[1-[(4,4-difluorocyclohexyl)methyl]-6-(3,5-dimethylisoxazol-4-yl)indol-3-yl]phenyl]phosphonic acid]: < 10 µM. `Cc1noc(C)c1-c1ccc2c(-c3ccc(C4(C(=O)O)CC4)cc3)cn(CC3CCC(F)(F)CC3)c2c1` [P-0748, 1-[4-[1-[(4,4-difluorocyclohexyl)methyl]-6-(3,5-dimethylisoxazol-4-yl)indol-3-yl]phenyl]cyclopropanecarboxylic acid]: the IC50 is < 10 µM. For `Cc1noc(C)c1-c1ccc2c(-c3ccc(B(O)O)cc3)cn(CC3CCC(F)(F)CC3)c2c1` [P-0749, [4-[1-[(4,4-difluorocyclohexyl)methyl]-6-(3,5-dimethylisoxazol-4-yl)indol-3-yl]phenyl]boronic acid], the IC50 was < 10 µM. As for `Cc1noc(C)c1-c1ccc2c(-c3ccc([N+](=O)[O-])nc3)cn(CC3CCC(F)(F)CC3)c2c1` [P-0750, 4-[1-[(4,4-difluorocyclohexyl)methyl]-3-(6-nitro-3-pyridyl)indol-6-yl]-3,5-dimethyl-isoxazol], the IC50 is < 10 µM. On to `Cc1noc(C)c1-c1ccc2c(-c3ccc(C(=O)O)cc3)cn([C@@H](c3ccccc3)c3ccccn3)c2c1` [P-0751, 4-[6-(3,5-dimethylisoxazol-4-yl)-1-[(S)-phenyl(2-pyridyl)methyl]indol-3-yl]benzoic acid], for which the IC50 is < 10 µM.

As a reminder, the IC50 is the concentration that inhibits the measured activity by half.

The values above are taken from patent US10519177B2, “Heterocyclic compounds and uses thereof” (Plexxikon Inc., priority 2013, dated 2019).
